According to ChEMBL document CHEMBL5120812, “Cytotoxic Nitrobenzoyl Sesquiterpenoids from an Antarctica Sponge-Derived Aspergillus insulicola” (J Nat Prod, 2022):
Calls of active or inactive are those of the source. The rule behind the calls is not given here.

Tests used:
PANC-1 [1] = assay: Induction of apoptosis in human PANC-1 cells assessed as late apototic cells at 2.50 uM incubated for 24 hrs by annexinV-FITC and PI staining based flow cytometry analysis (reference value: 5.71 %); format: functional; settings: dose 2.5 µM
PANC-1 [2] = assay: Induction of apoptosis in human PANC-1 cells assessed as late apototic cells at 5 uM incubated for 24 hrs by annexinV-FITC and PI staining based flow cytometry analysis (reference value: 5.71 %); format: functional
PANC-1 [3] = assay: Induction of apoptosis in human PANC-1 cells assessed as necrotic cells at 1.25 uM incubated for 24 hrs by annexinV-FITC and PI staining based flow cytometry analysis (reference value: 0.14 %); format: functional
PANC-1 [4] = assay: Induction of apoptosis in human PANC-1 cells assessed as necrotic cells at 2.50 uM incubated for 24 hrs by annexinV-FITC and PI staining based flow cytometry analysis (reference value: 0.14 %); format: functional; settings: dose 2.5 µM
PANC-1 [5] = assay: Induction of apoptosis in human PANC-1 cells assessed as necrotic cells at 5 uM incubated for 24 hrs by annexinV-FITC and PI staining based flow cytometry analysis (reference value: 0.14 %); format: functional
ASPC1 [6] = assay: Induction of apoptosis in human ASPC1 cells assessed as increase in cleaved caspase 3 level incubated for 24 hrs by Western blot analysis; format: functional, cell-based; settings: dose 1.25-5 µM, DDE = dose-dependent effect
PANC-1 [7] = assay: Induction of apoptosis in human PANC-1 cells assessed as increase in cleaved caspase 3 level incubated for 24 hrs by Western blot analysis; format: functional, cell-based; settings: dose 1.25-5 µM, DDE = dose-dependent effect
ASPC1 [8] = assay: Induction of apoptosis in human ASPC1 cells assessed as increase in cleaved caspase 9 level incubated for 24 hrs by Western blot analysis; format: functional, cell-based; settings: dose 1.25-5 µM, DDE = dose-dependent effect
PANC-1 [9] = assay: Induction of apoptosis in human PANC-1 cells assessed as increase in cleaved caspase 9 level incubated for 24 hrs by Western blot analysis; format: functional, cell-based; settings: dose 1.25-5 µM, DDE = dose-dependent effect
ASPC1 [10] = assay: Induction of apoptosis in human ASPC1 cells assessed as increase in PARP level incubated for 24 hrs by Western blot analysis; format: functional, cell-based; settings: dose 1.25-5 µM, DDE = dose-dependent effect
PANC-1 [11] = assay: Induction of apoptosis in human PANC-1 cells assessed as increase in PARP level incubated for 24 hrs by Western blot analysis; format: functional, cell-based; settings: dose 1.25-5 µM, DDE = dose-dependent effect
ASPC1 [12] = assay: Downregulation of survivin level in human ASPC1 cells upto 5 uM incubated for 24 hrs by Western blot analysis; format: functional, cell-based
PANC-1 [13] = assay: Downregulation of survivin level in human PANC-1 cells upto 5 uM incubated for 24 hrs by Western blot analysis; format: functional, cell-based
ASPC1 [14] = assay: Downregulation of Bcl-2 level in human ASPC1 cells upto 5 uM incubated for 24 hrs by Western blot analysis; format: functional, cell-based
PANC-1 [15] = assay: Downregulation of Bcl-2 level in human PANC-1 cells upto 5 uM incubated for 24 hrs by Western blot analysis; format: functional, cell-based
ASPC1 [16] = assay: Induction of apoptosis in human ASPC1 cells assessed as suppression of XIAP expression at upto 5 uM incubated for 24 hrs by Western blot analysis; format: functional, cell-based
PANC-1 [17] = assay: Induction of apoptosis in human PANC-1 cells assessed as suppression of XIAP expression at upto 5 uM incubated for 24 hrs by Western blot analysis; format: functional, cell-based
ASPC1 [18] = assay: Induction of apoptosis in human ASPC1 cells assessed as increase in caspase 3 enzymatic activity upto 5 uM incubated for 24 hrs by Western blot analysis; format: functional, cell-based
PANC-1 [19] = assay: Induction of apoptosis in human PANC-1 cells assessed as increase in caspase 3 enzymatic activity upto 5 uM incubated for 24 hrs by Western blot analysis; format: functional, cell-based
ASPC1 [20] = assay: Inhibition of cell migration in human ASPC1 cells at 0.94 to 3.75 uM incubated for 24 hrs by wound healing assay; format: functional, cell-based; settings: dose 0.94-3.75 µM
PANC-1 [21] = assay: Inhibition of cell migration in human PANC-1 cells at 0.94 to 3.75 uM incubated for 24 hrs by wound healing assay; format: functional, cell-based; settings: dose 0.94-3.75 µM
ASPC1 [22] = assay: Antiinvasive activity in human ASPC1 cells assessed as decrease in cell invasion at 0.94 to 3.75 uM incubated for 24 hrs by crystal violet staining based transwell assay; format: functional; settings: dose 0.94-3.75 µM
ASPC1 [23] = assay: Cytotoxicity against human ASPC1 cells assessed as reduction in cell viability at 5 uM incubated for 24 hrs in presence of gemcitabine by SRB assay; format: functional, cell-based
PANC-1 [24] = assay: Cytotoxicity against human PANC-1 cells assessed as reduction in cell viability at 5 uM incubated for 24 hrs in presence of gemcitabine by SRB assay; format: functional, cell-based
ASPC1 [25] = assay: Upregulation of cleaved caspase 3 expression in human ASPC1 cells incubated for 24 hrs in presence of gemcitabine by Western blot analysis; format: functional, cell-based
PANC-1 [26] = assay: Upregulation of cleaved caspase 3 expression in human PANC-1 cells incubated for 24 hrs in presence of gemcitabine by Western blot analysis; format: functional, cell-based
PANC-1 [27] = assay: Upregulation of PARP expression in human PANC-1 cells incubated for 24 hrs in presence of gemcitabine by Western blot analysis; format: functional, cell-based
ASPC1 [28] = assay: Cytotoxicity against human ASPC1 cells assessed as inhibition of cell proliferation incubated for 24 to 72 hrs by SRB assay; format: functional, cell-based; settings: dose 0.94-30 µM, time 24-72 hrs, DDE = dose-dependent effect
PANC-1 [29] = assay: Cytotoxicity against human PANC-1 cells assessed as inhibition of cell proliferation incubated for 24 to 72 hrs by SRB assay; format: functional, cell-based; settings: dose 0.94-30 µM, time 24-72 hrs, DDE = dose-dependent effect
[30] = biological target: Epidermal growth factor receptor (Homo sapiens) (UniProt P00533); assay: Inhibition of EGFR expression in human ASPC1 cells upto 5 uM incubated for 24 hrs by Western blot analysis; format: cell-based
Chain of Epidermal growth factor receptor (Homo sapiens) (P00533 whole entry): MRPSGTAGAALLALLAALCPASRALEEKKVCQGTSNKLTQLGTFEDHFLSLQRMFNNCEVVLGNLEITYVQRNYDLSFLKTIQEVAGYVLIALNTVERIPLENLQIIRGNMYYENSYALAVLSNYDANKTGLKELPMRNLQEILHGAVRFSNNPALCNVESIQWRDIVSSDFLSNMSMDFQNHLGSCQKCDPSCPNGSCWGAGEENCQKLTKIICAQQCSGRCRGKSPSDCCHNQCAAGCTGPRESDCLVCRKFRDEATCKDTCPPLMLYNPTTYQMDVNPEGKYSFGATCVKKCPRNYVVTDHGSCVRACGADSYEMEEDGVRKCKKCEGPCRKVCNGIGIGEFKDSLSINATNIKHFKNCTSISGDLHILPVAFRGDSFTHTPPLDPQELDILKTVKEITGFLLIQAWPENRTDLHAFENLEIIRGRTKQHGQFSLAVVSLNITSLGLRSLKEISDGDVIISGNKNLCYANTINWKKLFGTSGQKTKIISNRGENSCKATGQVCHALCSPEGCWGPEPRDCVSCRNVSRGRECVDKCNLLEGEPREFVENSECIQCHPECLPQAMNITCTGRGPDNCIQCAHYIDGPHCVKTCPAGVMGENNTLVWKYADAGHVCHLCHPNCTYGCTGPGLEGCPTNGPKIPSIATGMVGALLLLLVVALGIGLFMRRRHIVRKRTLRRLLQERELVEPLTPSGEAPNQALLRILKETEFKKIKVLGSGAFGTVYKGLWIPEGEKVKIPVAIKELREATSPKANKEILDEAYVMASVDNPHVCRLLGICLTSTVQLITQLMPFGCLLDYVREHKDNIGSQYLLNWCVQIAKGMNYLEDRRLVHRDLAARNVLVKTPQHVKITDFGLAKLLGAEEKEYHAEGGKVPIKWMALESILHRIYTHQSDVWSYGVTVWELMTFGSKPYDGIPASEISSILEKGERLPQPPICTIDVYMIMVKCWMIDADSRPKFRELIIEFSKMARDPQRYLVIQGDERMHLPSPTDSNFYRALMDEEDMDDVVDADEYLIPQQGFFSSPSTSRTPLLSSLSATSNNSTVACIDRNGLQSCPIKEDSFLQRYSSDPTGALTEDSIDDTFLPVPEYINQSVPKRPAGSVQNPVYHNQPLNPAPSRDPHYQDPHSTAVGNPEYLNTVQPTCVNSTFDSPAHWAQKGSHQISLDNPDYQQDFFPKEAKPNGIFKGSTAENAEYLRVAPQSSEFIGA

[31] = biological target: Epidermal growth factor receptor (Homo sapiens) (UniProt P00533); assay: Inhibition of EGFR expression in human PANC-1 cells upto 5 uM incubated for 24 hrs by Western blot analysis; format: cell-based

`COC(=O)CCCCCCC/C=C/C(=O)OC[C@@]1(C)CCC[C@@]2(C)[C@H]1[C@H](OC(=O)c1ccc([N+](=O)[O-])cc1)C=C1C(=O)OC[C@@]12O` was tested, and the Activity (PANC-1 [1]) was 13.6%, the Activity (PANC-1 [2]) was 23.1% and the Activity (PANC-1 [3]) was 0.22%. The Activity (PANC-1 [4]) was 0.25%, the Activity (PANC-1 [5]) was 0.11% and the Activity (ASPC1 [6]) was “Dde”. The Activity (PANC-1 [7]) was “Dde”, the Activity (ASPC1 [8]) was “Dde” and the Activity (PANC-1 [9]) was “Dde”. For the same molecule, the Activity (ASPC1 [10]) was “Dde”, the Activity (PANC-1 [11]) was “Dde” and the Activity (ASPC1 [12]) was “Active”. The Activity (PANC-1 [13]) was “Active”, the Activity (ASPC1 [14]) was “Active” and the Activity (PANC-1 [15]) was “Active”. For the same molecule, the Activity (ASPC1 [16]) was “Active”, the Activity (PANC-1 [17]) was “Active” and the Activity (ASPC1 [18]) was “Active”. The Activity (PANC-1 [19]) was “Active”, the inhibition (ASPC1 [20]) was “Active” and the inhibition (PANC-1 [21]) was “Active”. The Activity (ASPC1 [22]) was “Active”, the Activity (ASPC1 [23]) was “Active” and the Activity (PANC-1 [24]) was “Active”. The Activity (ASPC1 [25]) was “Active”, the Activity (PANC-1 [26]) was “Active” and the Activity (PANC-1 [27]) was “Active”. For the same molecule, the Activity (ASPC1 [28]) was “Dde”, the Activity (PANC-1 [29]) was “Dde” and the inhibition [30] was “Active”. For the same molecule, the inhibition [31] was “Active”.
